The values that follow come from patent US20140194529A1, “USAGE OF NATURAL COMPOUND FOR TREATING INFLAMMATION AND CANCER” (Hong Kong Baptist University, priority 2013, published 2014).

What all share (assay type): cell-based
Data set [1] relates to iNOS-induced NO generation in RAW 264.7 cells. The data set can be described thus: NO accumulation in LPS/IFN-γ stimulated RAW 264.7 cells (Griess reaction). Conditions: 24 hours. The procedure: RAW264.7 were maintained in RPMI 1640 medium supplemented with 10% FBS at 37° C. in a humidified 5% CO2 atmosphere. Cells were plated in a 96-well plate (5×10^3 cells/well) and allowed to attach overnight. The cells were then stimulated with 10 U/ml of IFN-γ and 100 ng/ml of LPS for 24 hours in the presence or absence of GE with final concentration of 50, 25, 12.5, 6.25, 3.125 μg/mL, and Indometacin as positive drug.
RAW264.7 were maintained in RPMI 1640 medium supplemented with 10% FBS at 37° C. in a humidified 5% CO2 atmosphere. Cells were plated in a 96-well plate (5×10^3 cells/well) and allowed to attach overnight. For stimulation, the medium was replaced with fresh FBS-free RPMI 1640 for 10 hours, and the cells were then stimulated with 10 U/ml of IFN-γ and 100 ng/ml of LPS for 24 hours in the presence or absence of extractions or fractions.
iNOS function was analyzed with Griess reaction by assay of nitrite concentration in the culture supernatant. Briefly, 100 μl/well of sample was incubated with equal volume of Griess solution (1% sulfanilamide in 5% phosphoric acid+1% α-naphthylamine in distilled water) at room temperature for 10 minutes. The absorbance was evaluated at 540 nm using a calibration curve with a sodium nitrite standard. Percent inhibition was expressed as [1−(NO level of sample/NO level of vehicle treated−control)]×100.

Data set [2] deals with MCF-7. Nature of the data set: Cell cytotoxicity, MTT method. As to conditions: read-out: The cell cytotoxicity effect, IC50. How it is done:
(§1) RAW 264.7 cells were obtained from the American Tissue Culture Collection (ATCC). Liver cancer line SMMC-7721 and HepG2, breast cancer lines including MCF-7 and MDA-MB-231 were purchased from cell-bank of Chinese Academy of Sciences, China. These cells were maintained in complete RPMI 1640 medium supplemented with 10% FBS at 37° C. in a humidified 5% CO2 atmosphere.
(§2) SMMC-7721 and HepG2, MCF-7 and MDA-MB-231 were seeded into 96-well plates (3×10^3 cells/well) and allowed to attach overnight. GE were added in final concentration of 50, 25, 12.5, 6.25, 3.125 μg/mL and continually cultured for 72 hours. Taxol as positive drug. Each well was incubated with 20 μl MTT (5 mg/ml in phosphate-buffered saline) for 4 hours at 37° C. Volume of 150 μl DMSO was added after the medium in well discarded and reacted for 10 minutes. Absorbance was measured at 490 nm. The optical density of formazan formed in control (untreated) cells was taken as 100% of viability. Mean value of each concentration (n=3 wells) was obtained.
For orientation: Tetrazolium dyes change colour on reduction, which living cells bring about.

Data set [3] deals with HepG2. Nature of the data set: Cell cytotoxicity, MTT method. Conditions: HepG2, 72 hours, read-out: The cell cytotoxicity effect, IC50. The procedure:
as §1, §2

Data set [4] relates to SMMC-7721. Nature of the data set: Cell cytotoxicity, MTT method. As to conditions: SMMC-7721, 72 hours, read-out: The cell cytotoxicity effect, IC50. The procedure: as §1, §2
The test system of data set [5] is MDA-MB-231. The data set can be described thus: Cell cytotoxicity, MTT method. Conditions: MDA-MB-231, 72 hours. How it is done:
as §1, §2

Data set [6] concerns breast cancer lines and liver cancer lines. Nature of the data set: Cell cytotoxicity, MTT method (summary in conclusion). How it is done:
as §1, §2

Read-outs that look alike come from different tables or passages of the source.

As for `COc1ccc2c(c1)c(CC(=O)O)c(C)n2C(=O)c1ccc(Cl)cc1` [Indometacin, reference compound], the inhibition at 1 µg/mL in data set [1] (Mus musculus, RAW264.7, 1 μg/mL, RAW 264.7, IFN-γ + LPS, read-out: The inhibitory effect on NO accumulation) stood at 46.5%.
Take `CC(=O)O[C@H]1C(=O)[C@@]2(C)[C@H]([C@H](OC(=O)c3ccccc3)[C@]3(O)C[C@H](OC(=O)[C@H](O)[C@@H](NC(=O)c4ccccc4)c4ccccc4)C(C)=C1C3(C)C)[C@]1(OC(C)=O)CO[C@@H]1C[C@@H]2O` [Taxol, reference compound]: the IC50 (usually the point on the concentration scale where inhibition reaches its midpoint) in data set [2] (Homo sapiens, MCF7, MCF-7, 72 hours) was determined as 0.003 µM; in data set [3] (Homo sapiens), 0.00044 µM; in data set [4] (Homo sapiens) it was 0.15 µM; in data set [5] (Homo sapiens, read-out: The cell cytotoxicity effect, IC50) it was 5 µM.
For the compound Garcimultiflorone E [GE], the IC50 came out at 9.63 µM in data set [2] (MCF-7, 72 hours); 13.2 µM in data set [3]; 11.9 µM in data set [4]; 5.78 µM in data set [1] (RAW 264.7, 10 U/ml IFN-γ + 100 ng/ml LPS, read-out: The inhibitory effect on NO accumulation, IC50). The “Effect on proliferation (in words)” value in data set [5] is “no effect”. Besides, the “The inhibitory effect on NO accumulation, IC50” value in data set [1] (RAW 264.7, 10 U/ml IFN-γ + 100 ng/ml LPS) is 3.57 µg/mL. In data set [6], the “Concentration at which proliferation is inhibited” value is listed as “about 10 μM”.
